Here are results for six molecules from US9109043B2 (Tokyo Institute of Technology, priority 2010, dated 2015).

Molecules are shown by their SMILES. “Also recorded” adds a separate entry of the source. Where two headings read alike, the source gives them in different places.

In test [1] the target is T1, insulin secretion regulation factor (ATIS1) (Mus musculus, UniProt Q6P5E4).
T1 construct: made in house; host or cells: cell-free: TNT Quick coupled transcription/translation system (Promega)
Put plainly: Release of radiolabelled ATIS1 from arginine-immobilized agarose by amino acids and sugars. It is filed as binding. The conditions noted are these: silver stained gel, FIG. 8A.

In test [2] the test system is NIT-1 cells in which insulin secretion regulation factor was forcibly expressed. Put plainly: Insulin secretion by NIT-1 cells with forced expression of insulin secretion regulation factor (ELISA). It is filed as cell-based, mouse.
Test [3] deals with T2, insulin secretion regulation factor (Mus musculus, UniProt Q6P5E4). The test can be described thus: Competitive inhibition of radiolabelled arginine binding to insulin secretion regulation factor. The arrangement: made in house; host or cells: Escherichia coli. To be noted: increasing concentration of cold competitor, FIG. 2B, FIG. 3A.
Target sequence in this assay (Q6P5E4 43-1551): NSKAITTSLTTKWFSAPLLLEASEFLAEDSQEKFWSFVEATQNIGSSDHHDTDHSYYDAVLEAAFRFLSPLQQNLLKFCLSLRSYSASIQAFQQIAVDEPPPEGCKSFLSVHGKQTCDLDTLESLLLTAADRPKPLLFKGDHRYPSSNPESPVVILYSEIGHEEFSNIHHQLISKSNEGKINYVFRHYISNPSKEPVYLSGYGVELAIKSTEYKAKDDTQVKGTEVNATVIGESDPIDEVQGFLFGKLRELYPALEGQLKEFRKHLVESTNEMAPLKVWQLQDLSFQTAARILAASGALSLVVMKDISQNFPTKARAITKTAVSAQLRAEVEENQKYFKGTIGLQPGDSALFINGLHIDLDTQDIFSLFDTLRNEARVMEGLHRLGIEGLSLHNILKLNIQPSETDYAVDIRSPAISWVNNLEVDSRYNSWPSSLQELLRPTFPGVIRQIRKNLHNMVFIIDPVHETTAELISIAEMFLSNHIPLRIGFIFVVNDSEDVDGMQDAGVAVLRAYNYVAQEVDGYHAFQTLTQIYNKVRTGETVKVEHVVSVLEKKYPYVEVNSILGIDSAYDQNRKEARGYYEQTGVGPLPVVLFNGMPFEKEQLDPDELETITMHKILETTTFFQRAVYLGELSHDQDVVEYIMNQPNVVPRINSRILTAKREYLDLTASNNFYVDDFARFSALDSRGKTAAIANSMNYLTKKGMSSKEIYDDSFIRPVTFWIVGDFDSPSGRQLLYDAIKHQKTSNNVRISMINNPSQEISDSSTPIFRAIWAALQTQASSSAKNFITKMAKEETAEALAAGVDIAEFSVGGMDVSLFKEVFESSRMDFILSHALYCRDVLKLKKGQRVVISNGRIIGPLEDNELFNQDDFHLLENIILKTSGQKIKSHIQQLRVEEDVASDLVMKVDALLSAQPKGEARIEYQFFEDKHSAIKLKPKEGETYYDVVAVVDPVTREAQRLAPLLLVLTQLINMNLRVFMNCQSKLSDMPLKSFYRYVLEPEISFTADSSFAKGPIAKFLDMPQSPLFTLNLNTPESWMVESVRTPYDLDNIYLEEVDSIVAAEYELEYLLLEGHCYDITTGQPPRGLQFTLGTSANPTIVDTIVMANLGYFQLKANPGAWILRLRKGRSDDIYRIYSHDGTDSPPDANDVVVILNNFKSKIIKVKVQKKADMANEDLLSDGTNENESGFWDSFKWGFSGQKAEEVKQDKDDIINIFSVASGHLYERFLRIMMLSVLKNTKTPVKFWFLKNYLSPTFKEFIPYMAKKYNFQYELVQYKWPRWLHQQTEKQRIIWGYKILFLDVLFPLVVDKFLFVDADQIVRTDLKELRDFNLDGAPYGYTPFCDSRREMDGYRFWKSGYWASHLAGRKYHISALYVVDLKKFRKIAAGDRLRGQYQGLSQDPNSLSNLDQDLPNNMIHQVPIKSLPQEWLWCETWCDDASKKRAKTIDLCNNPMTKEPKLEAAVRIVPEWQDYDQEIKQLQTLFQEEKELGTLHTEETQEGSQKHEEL
Test [4] deals with T2, insulin secretion regulation factor. The test can be described thus: Partial protease digestion of radiolabelled insulin secretion regulation factor in presence of amino acid. It is filed as binding. The arrangement: made in house; host or cells: cell-free: TNT Quick coupled transcription/translation system (Promega). The conditions noted are these: 100 μM arginine, on ice 10 minutes, vs absence, phenylalanine or leucine.
Target sequence in this assay (Q6P5E4 whole entry): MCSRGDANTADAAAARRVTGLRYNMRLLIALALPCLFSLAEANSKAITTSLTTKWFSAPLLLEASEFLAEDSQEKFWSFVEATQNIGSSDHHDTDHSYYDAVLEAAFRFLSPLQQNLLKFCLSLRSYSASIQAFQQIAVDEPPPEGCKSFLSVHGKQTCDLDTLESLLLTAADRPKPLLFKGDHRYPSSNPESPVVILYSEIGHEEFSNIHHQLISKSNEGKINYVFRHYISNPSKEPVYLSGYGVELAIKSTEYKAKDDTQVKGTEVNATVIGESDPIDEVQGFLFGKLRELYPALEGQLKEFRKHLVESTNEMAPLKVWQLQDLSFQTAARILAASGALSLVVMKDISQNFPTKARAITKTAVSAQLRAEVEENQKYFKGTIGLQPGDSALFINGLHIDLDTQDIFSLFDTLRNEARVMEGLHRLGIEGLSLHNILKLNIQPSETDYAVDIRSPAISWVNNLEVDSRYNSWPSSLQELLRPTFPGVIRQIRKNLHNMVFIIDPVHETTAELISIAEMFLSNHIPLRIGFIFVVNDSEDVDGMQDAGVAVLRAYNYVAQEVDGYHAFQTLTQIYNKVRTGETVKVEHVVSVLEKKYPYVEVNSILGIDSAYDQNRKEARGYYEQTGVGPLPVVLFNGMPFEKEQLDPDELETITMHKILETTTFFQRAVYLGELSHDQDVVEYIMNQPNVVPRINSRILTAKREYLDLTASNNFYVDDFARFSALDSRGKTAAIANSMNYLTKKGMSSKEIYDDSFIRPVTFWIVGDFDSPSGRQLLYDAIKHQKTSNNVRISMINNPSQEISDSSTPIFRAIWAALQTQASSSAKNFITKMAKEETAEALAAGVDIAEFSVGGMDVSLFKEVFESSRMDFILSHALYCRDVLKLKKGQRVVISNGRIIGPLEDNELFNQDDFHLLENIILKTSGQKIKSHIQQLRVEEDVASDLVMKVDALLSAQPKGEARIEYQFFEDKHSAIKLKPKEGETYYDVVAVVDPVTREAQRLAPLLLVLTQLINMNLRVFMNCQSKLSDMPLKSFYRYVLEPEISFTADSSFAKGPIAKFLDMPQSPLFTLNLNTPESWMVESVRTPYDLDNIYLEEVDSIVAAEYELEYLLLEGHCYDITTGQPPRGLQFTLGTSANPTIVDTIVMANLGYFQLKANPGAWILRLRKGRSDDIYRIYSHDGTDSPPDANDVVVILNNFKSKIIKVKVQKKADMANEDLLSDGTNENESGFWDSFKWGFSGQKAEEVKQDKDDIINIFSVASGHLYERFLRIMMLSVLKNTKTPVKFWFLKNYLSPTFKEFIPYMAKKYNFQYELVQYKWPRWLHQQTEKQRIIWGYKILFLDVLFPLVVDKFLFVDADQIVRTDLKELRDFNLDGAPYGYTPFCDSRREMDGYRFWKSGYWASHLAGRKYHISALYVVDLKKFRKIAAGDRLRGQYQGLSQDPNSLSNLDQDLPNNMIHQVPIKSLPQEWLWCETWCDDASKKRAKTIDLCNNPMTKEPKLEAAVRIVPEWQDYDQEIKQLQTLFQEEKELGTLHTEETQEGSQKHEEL

The target is the same in test [5]. Put plainly: Disconnection of insulin from insulin secretion regulation factor by arginine. To be noted: depending on amount of arginine added, FIG. 3C. The arrangement: made in house; host or cells: Escherichia coli. It is filed as binding.
Target sequence in this assay (Q6P5E4 43-1551): as the sequence (Q6P5E4 43-1551) above
For test [6], the system named is transformed cultured cells secreting fluorescently labeled insulin. The test can be described thus: Fluorescence microscopy of transformed cultured cells secreting fluorescently labeled insulin. The class given is cell-based. The conditions noted are these: arginine 10 mM, 10 and 60 seconds after administration and thereafter, data not shown. On the procedure:
Thus, transformed cultured cells were prepared so as to secrete fluorescently labeled insulin. Using the cells, it was possible to observe insulin secretion by arginine addition and temporal changes in the intracellular localization of insulin with a fluorescent microscope. […] This experimental system can also be applied to the screening of a candidate substance, other than arginine, that promotes insulin secretion.

Test [7] deals with T1, insulin secretion regulation factor (ATIS1). Put plainly: Release of radiolabelled ATIS1 from insulin-immobilized agarose by test substance. The class given is binding.
The next test relates to wild type NIT-1 cells. The test can be described thus: Arginine-induced insulin secretion by wild type NIT-1 cells (ELISA). The class given is cell-based, mouse. To be noted: arginine 0.1-20 mM, 10 minutes, FIG. 4.

T1 sequence (Q6P5E4 43-1551): as above

As for `NCCCC[C@H](N)C(=O)O` [lysine], in test [1], the “interaction (binding) with insulin secretion regulation factor ATIS1” value (“interaction (binding)” below) is “interacted with the insulin secretion regulation factor”.
For the molecule `N[C@@H](Cc1ccccc1)C(=O)O` [Phenylalanine, phenylalanine], the “interaction (binding)” value in test [1] is recorded as “did not bind to ATIS1”.
For the molecule `N=C(N)NCCC[C@H](N)C(=O)O` [arginine], the “amount of insulin secreted per unit time” value in test [2] is reported as “about 2 pg/cell/min”. For the same molecule, the “radiolabelled arginine disconnected from insulin secretion regulation factor” value in test [3] was “the radiolabelled arginine that had been bound was disconnected from insulin secretion regulation factor; also recorded: the amount of disconnected radiolabelled arginine increased”. In addition, the “resistance of insulin secretion regulation factor to chymotrypsin partial digestion” value in test [4] is “significant resistance to chymotrypsin partial digestion”. The “resistance of insulin secretion regulation factor to trypsin partial digestion” value in test [4] (FIG. 2C) was “significant resistance to trypsin partial digestion”. Also, the “interaction (binding)” value in test [1] is on record as “interacted with the insulin secretion regulation factor”. Besides, the “insulin disconnected from insulin secretion regulation factor” value in test [5] is “the amount of disconnected insulin increases”. Also, the “intracellular localization and secretion of fluorescently labeled insulin” value in test [6] is given as “being extracellularly secreted thereafter resulting in the disappearance of fluorescence”. For the same molecule, in test [7], the “competition with insulin for insulin secretion regulation factor” value is listed as “competes with insulin”. Also, in the test with wild type NIT-1 cells, the arginine-induced insulin secretion entry is “depending on arginine concentration, insulin secretion is promoted”.
With `CC(C)=CCc1cc(/C=C/C(=O)O)ccc1O` [drupanin], in test [2] (10 mM substance, cultured 10 minutes, FIG. 6A), the “amount of insulin secreted per unit time” value is recorded as “about 2 pg/cell/min”. For the same molecule, the “competition with insulin for insulin secretion regulation factor” value in test [7] (autoradiography, FIG. 6B) is “competes with insulin”.
For `NC(=O)NCCC[C@H](N)C(=O)O` [citrulline], the “interaction (binding)” value in test [1] is “did not exhibit the ATIS1 binding activity”.
`NCCC[C@H](N)C(=O)O` [ornithine]: the “interaction (binding)” value in test [1] is “interacted with the insulin secretion regulation factor”.
